One data set deals with SLC-1 (UniProt Q99705). The experiment in a line: Determination of antagonist activity using GTPγS binding assay. In kind it is biochemical, human/rat. The note with it: inhibition of MCH-stimulated [35S]-Guanosine 5′-(γ-thio) triphosphate binding, SLC-1 expressing CHO cell membrane fractions. The procedure: Determination of Antagonist Activity Using GTPYS Binding Assay of Test Compound
Membrane fraction was prepared by the following method, using the human SLC-1 expressing CHO cell clone 57 obtained in Reference Example 1-10, and the rat SLC-1 expressing CHO cell clone 44 obtained in Reference Example 1-4.
The human and rat SLC-1 expressing CHO cells (1×10^8) were scraped in buffer saline phosphate (pH 7.4) to which 5 mM EDTA (ethylenediaminetetraacetic acid) had been added, and centrifuged. 10 ml of homogenized buffer (10 mM NaHCO3, 5 mM EDTA, pH 7.5) was added to the cell pellets, and they were homogenized using a Polytron homogenizer. […]
After this reaction mixture was allowed to react for 1 hour under stirring, it was filtered under vacuum using a glass filter (GF-C), then the filter was washed 3 times with 300 μl of washing solution (50 mM Tris-HCl buffer solution pH 7.5). […] of liquid scintillator was added to the glass filter, and residual radioactivity was determined using a liquid scintillation counter.
The IC50 value of the compound was calculated from the binding inhibition rate (%), based on the definition that the binding inhibition rate (%)=(radioactivity when compound and MCH were added−radioactivity when DMSO solution was added)/(radioactivity when MCH was added−radioactivity when DMSO solution was added)×100.
For orientation: GTPγS resists hydrolysis and so accumulates on activated G proteins.

In general, IC50 refers to the concentration at which inhibition is half-maximal. By melting point is commonly meant the temperature, or range, at which the solid turns liquid. The compound `CN(C)Cc1ccc2cc(NC(=O)c3ccc(-c4ccc(Cl)cc4)cc3)ccc2c1` [Example 1, 4′-Chloro-N-[6-[(N,N-dimethylamino)methyl]-2-naphthyl][1,1′-biphenyl]-4-carboxamide] came in with a melting point of 230 to 231 °C. Moreover, the IC50 at SLC-1 worked out at 5 nM.
With `CC1(C)CCCC(C)(C)N1Cc1ccc2cc(NC(=O)c3ccc(-c4ccc(F)cc4)cc3)ccc2c1` [Example 121, 4′-Fluoro-N-[6-[(2,2,6,6-tetramethyl-1-piperidinyl)methyl]-2-naphthyl][1,1′-biphenyl]-4-carboxamide], the melting point lay within 238 to 241 °C.
Same read-out and setting: for `Cc1ccc(-c2ccc(C(=O)Nc3ccc4cc(CN5C(C)(C)CCCC5(C)C)ccc4c3)cc2)cc1` [Example 122, 4′-Methyl-N-[6-[(2,2,6,6-tetramethyl-1-piperidinyl)methyl]-2-naphthyl][1,1′-biphenyl]-4-carboxamide] the value was 235 to 237 °C; for `CC1(C)CCCC(C)(C)N1Cc1ccc2cc(NC(=O)c3ccc(-c4ccc(Cl)cc4)cc3)ccc2c1` [Example 123, 4′-Chloro-N-[6-[(2,2,6,6-tetramethyl-1-piperidinyl)methyl]-2-naphthyl][1,1′-biphenyl]-4-carboxamide], 244 to 246 °C.
Still for that read-out and setting: for `CC(C)N(Cc1ccc2cc(NC(=O)c3ccc(-c4ccc(Cl)cc4)cc3)ccc2c1)C(C)C` [Example 124, 4′-Chloro-N-[6-[(diisopropylamino)methyl]-2-naphthyl][1,1′-biphenyl]-4-carboxamide] the value was 246 to 250 °C; for `CC(C)N(Cc1ccc2cc(NC(=O)c3ccc(-c4ccccc4)cc3)ccc2n1)C(C)C` [Example 133, N-[2-[(Diisopropylamino)methyl]-6-quinolinyl][1-1′-biphenyl]-4-carboxamide], 208 to 209 °C; for `COc1ccc(-c2ccc(C(=O)Nc3ccc4nc(CN(C(C)C)C(C)C)ccc4c3)cc2)cc1` [Example 134, N-[2-[(Diisopropylamino)methyl]-6-quinolinyl]-4′-methoxy[1-1′-biphenyl]-4-carboxamide], 223 to 225 °C.
Same read-out and setting: for `CC(C)N(Cc1ccc2cc(NC(=O)c3ccc(-c4ccc(F)cc4)cc3)ccc2n1)C(C)C` [Example 135, N-[2-[(Diisopropylamino)methyl]-6-quinolinyl]-4′-fluoro[1-1′-biphenyl]-4-carboxamide] the value was 207 to 209 °C; for `Cc1ccc(-c2ccc(C(=O)Nc3ccc4nc(CN(C(C)C)C(C)C)ccc4c3)cc2)cc1` [Example 136, N-[2-[(Diisopropylamino)methyl]-6-quinolinyl]-4′-methyl [1-1′-biphenyl]-4-carboxamide], 225 to 227 °C.
`Cc1ccc(-c2ccc(C(=O)Nc3ccc4nc(CN(C(C)C)C(C)C)ccc4c3)cn2)cc1` [Example 137, N-[2-[(Diisopropylamino)methyl]-6-quinolinyl]-6-(4-methylphenyl)nicotinamide]: the melting point is 211 to 213 °C.
Same read-out and setting: for `CC(C)N(Cc1ccc2cc(NC(=O)c3ccc(-c4ccc(Cl)cc4)nc3)ccc2n1)C(C)C` [Example 138, 6-(4-Chlorophenyl)-N-[2-[(diisopropylamino)methyl]-6-quinolinyl]nicotinamide] the value was 201 to 203 °C; for `Cc1ccc(C2CCN(C(=O)Nc3ccc4nc(CN(C(C)C)C(C)C)ccc4c3)CC2)cc1` [Example 139, N-[2-[(Diisopropylamino)methyl]-6-quinolinyl]-4-(4-methylphenyl)-1-piperidinecarboxamide], 184 to 186 °C; for `CC(C)N(Cc1ccc2cc(NC(=O)N3CCC(c4ccc(Cl)cc4)CC3)ccc2n1)C(C)C` [Example 140, 4-(4-Chlorophenyl)-N-[2-[(diisopropylamino)methyl]-6-quinolinyl]-1-piperidinecarboxamide], 201 to 203 °C.

For the origin of these results see patent US6930185B2, “Melanin-concentrating hormone antagonist” (Takeda Chemical Industries, Ltd., priority 2000, dated 2005).
